Data on two compounds can be found in patent publication US20260083722A1, “BIFUNCTIONAL DEGRADERS COMPRISING ELECTROPHILIC PROTACS THAT ENGAGE DCAF1 AND PHARMACEUTICAL COMPOSITIONS COMPRISING THE SAME” (THE SCRIPPS RESEARCH INSTITUTE, priority 2022, published 2026).

Assay [1] deals with T1, recombinant DCAF1-WT (a.a.'s 1046-1396) (Homo sapiens, UniProt Q9Y4B6).
T1 construct: form of DCAF1 containing the WD40 domain (amino acids (a.a.'s) 1046-1396); made in house
The assay can be described thus: gel-ABPP with recombinant purified DCAF1-WT doped into HEK293T cell proteome. The assay is classed as binding. To be noted: for inhibition of MY-11B probe reactivity with recombinant DCAF1: 2 h, then MY-11B 25 μM 1 h, YT41S and YT47S at single concentration 100 μM; for plateau of blockade of MY-11B labeling: at 20 µM test concentrations; for gel-shift of recombinant DCAF1 by Coomassie blue staining: in the presence of compound. The source says:
FIG. 2 that azetidine acrylamides stereo- and site-selectively engage recombinant DCAF1_C1113. (A) Domain map of DCAF1 with the region used for recombinant protein studies marked in a bracket (a.a.'s 1046-1396) and C1113 highlighted in red. (B) Crystal structure of a DCAF1-Vpx complex (pdb: 5AJA). DCAF1 (a.a.'s 1046-1396) is shown in cyan, Vpx is shown in yellow, and C1113, which is located at the DCAF1-Vpx interface is shown in red. (C) Structures of alkyne-modified azetidine acrylamides MY-11A (5) and MY-11B (6). (D) Gel-ABPP showing the concentration-dependent reactivity of MY-11A and MY-11B (1 h) reactivity with recombinant, purified DCAF1-WT or the DCAF1-C1113A mutant (0.06 μg/μL of DCAF1 protein per sample) doped into HEK293T cell proteome (1 μg/μL). MY-11A/B labeling of proteins was visualized by CuAAC conjugation to an azide-rhodamine tag followed by SDS-PAGE and in-gel fluorescence scanning. Results are from a single experiment representative of two independent experiments. (E) Gel-ABPP showing the concentration-dependent effects of MY-1A and MY-1B on MY-11B reactivity with DCAF1-WT. Samples were treated with MY-1A/B for 2 h, followed by MY-11B (25 μM, 1 h) and analyzed as described in (D). Left, quantification of data presented as mean values±SEM from two independent experiments. Right, representative gel-ABPP results. (D, E) Lower images are Coomassie blue-stained gels corresponding to ABPP gels shown in upper images.
(A) Structures of candidate electrophilic PROTACs YT41R (7), YT41S (8), YT47R (9), and YT47S (10). (B) Gel-ABPP showing the concentration-dependent effects of YT41R and YT47R on MY-11B reactivity with DCAF1-WT protein (0.06 μg/μL of DCAF1 protein per sample) doped into HEK293T cell proteome (1 μg/μL). Also shown are the effects of YT41S and YT47S tested at a single concentration (100 μM). Samples were treated with heterobifunctional compounds for 2 h, followed by MY-11B (25 μM, 1 h) and analyzed as described in FIG. 2D. Left, representative gel-ABPP results. Lower image is Coomassie blue-stained gel corresponding to ABPP gel shown in upper image. Right, quantification of data presented as mean values±SEM from two independent experiments.
DCAF1 is a multi-domain substrate receptor for CRL4 ligases (FIG. 2A) that has diverse physiological and disease functions, including being co-opted by the HIV-2 virus to promote degradation of the antiviral host protein SAMHD1^27-28. […] We verified the stereo- and site-selective engagement of DCAF1_C1113 by azetidine acrylamides using alkynylated analogues of MY-1A and MY-1B (MY-11A (5) and MY-11B (6), respectively; FIG. 2C). For these experiments, we doped into HEK293T cell lysates a recombinantly expressed and purified form of DCAF1 containing the WD40 domain (amino acids (a.a.'s) 1046-1396), in complex with the CRL4 adaptor protein DDB1^31, and exposed these samples to varying concentrations of MY-11A or MY-11B. After 1 h, we assessed MY-11A and MY-11B engagement of DCAF1 by copper-catalyzed azide-alkyne cycloaddition (CuAAC)^32 with an azide-rhodamine reporter tag followed by SDS-PAGE and in-gel fluorescence scanning^33. […] We used gel-ABPP to quantify an in vitro target engagement value (TE50) of approximately 25 μM (95% C.I.=13-38 μM) for MY-1B labeling of DCAF1 (FIG. 2E, left).

Assay [2] deals with T2, C1113 of recombinantly expressed DCAF1 (Homo sapiens, UniProt Q9Y4B6).
T2 construct: expressed in transfected cells; host or cells: HEK293T
The assay can be described thus: MS-ABPP in FLAG-DCAF1-WT-expressing HEK293T cells. Format: cell-based. To be noted: 5 μM, 3 h. The procedure:
(§1) (A) Left, western blots showing effects of YT47R and YT47S on the immunoprecipitation (IP) of FLAG-DCAF1-WT or FLAG-DCAF1-C1113A with HA-FKBP12 in HEK293T cells co-expressing these proteins. Cells were treated with YT47R or YT47S (5 μM) for 2 h in the presence of MG132 (10 μM) prior to lysis and IP with an anti-HA antibody and western blotting for the indicated proteins (DCAF1, FKBP12, and ubiquitinated protein). Right, bar graphs quantifying DCAF1 (top) and ubiquitination (Ub) (bottom) in the indicated IP groups. (B) Left, western blots showing effects of YT47R and YT47S on the IP of endogenous DCAF1 with HA-FKBP12 in HEK293T cells expressing HA-FKBP12. […] Right, bar graph quantifying DCAF1 in the indicated IP groups. […] Statistical significance was calculated with unpaired two-tailed Student's t-tests comparing YT41R/YT47R- and DMSO-treated cells. **P<0.01, ****P<0.0001. (C) MS-ABPP quantification of IA-DTB labeling of the indicated cysteines in DCAF1 from FLAG-DCAF1-WT-expressing HEK293T cells treated with the indicated concentrations of YT47R (3 h) relative to cells treated with DMSO. […] Statistical significance was calculated with unpaired two-tailed Student's t-tests comparing compound to DMSO treated cells. *P<0.1. […]

The next assay has as its target T3, HA-FKBP12 (Homo sapiens, UniProt P62942).
T3 construct: expressed in transfected cells; host or cells: HEK293T
The assay can be described thus: ubiquitination of immunoprecipitated HA-FKBP12 in HEK293T cells. Format: cell-based. The procedure:
as §1

SMILES strings stand for the structures.

T1 sequence (Q9Y4B6 1046-1396): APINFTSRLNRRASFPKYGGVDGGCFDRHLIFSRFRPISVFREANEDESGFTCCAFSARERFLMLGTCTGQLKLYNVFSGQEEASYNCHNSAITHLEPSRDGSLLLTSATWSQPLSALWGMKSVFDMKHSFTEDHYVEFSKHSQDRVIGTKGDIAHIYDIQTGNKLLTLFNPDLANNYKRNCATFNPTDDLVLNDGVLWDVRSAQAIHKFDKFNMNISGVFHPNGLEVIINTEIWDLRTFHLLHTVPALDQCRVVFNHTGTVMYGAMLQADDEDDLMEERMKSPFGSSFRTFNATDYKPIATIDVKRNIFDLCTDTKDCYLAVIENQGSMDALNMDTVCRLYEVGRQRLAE
T1 sequence (Q16531 whole entry partner, the tested form may be a part): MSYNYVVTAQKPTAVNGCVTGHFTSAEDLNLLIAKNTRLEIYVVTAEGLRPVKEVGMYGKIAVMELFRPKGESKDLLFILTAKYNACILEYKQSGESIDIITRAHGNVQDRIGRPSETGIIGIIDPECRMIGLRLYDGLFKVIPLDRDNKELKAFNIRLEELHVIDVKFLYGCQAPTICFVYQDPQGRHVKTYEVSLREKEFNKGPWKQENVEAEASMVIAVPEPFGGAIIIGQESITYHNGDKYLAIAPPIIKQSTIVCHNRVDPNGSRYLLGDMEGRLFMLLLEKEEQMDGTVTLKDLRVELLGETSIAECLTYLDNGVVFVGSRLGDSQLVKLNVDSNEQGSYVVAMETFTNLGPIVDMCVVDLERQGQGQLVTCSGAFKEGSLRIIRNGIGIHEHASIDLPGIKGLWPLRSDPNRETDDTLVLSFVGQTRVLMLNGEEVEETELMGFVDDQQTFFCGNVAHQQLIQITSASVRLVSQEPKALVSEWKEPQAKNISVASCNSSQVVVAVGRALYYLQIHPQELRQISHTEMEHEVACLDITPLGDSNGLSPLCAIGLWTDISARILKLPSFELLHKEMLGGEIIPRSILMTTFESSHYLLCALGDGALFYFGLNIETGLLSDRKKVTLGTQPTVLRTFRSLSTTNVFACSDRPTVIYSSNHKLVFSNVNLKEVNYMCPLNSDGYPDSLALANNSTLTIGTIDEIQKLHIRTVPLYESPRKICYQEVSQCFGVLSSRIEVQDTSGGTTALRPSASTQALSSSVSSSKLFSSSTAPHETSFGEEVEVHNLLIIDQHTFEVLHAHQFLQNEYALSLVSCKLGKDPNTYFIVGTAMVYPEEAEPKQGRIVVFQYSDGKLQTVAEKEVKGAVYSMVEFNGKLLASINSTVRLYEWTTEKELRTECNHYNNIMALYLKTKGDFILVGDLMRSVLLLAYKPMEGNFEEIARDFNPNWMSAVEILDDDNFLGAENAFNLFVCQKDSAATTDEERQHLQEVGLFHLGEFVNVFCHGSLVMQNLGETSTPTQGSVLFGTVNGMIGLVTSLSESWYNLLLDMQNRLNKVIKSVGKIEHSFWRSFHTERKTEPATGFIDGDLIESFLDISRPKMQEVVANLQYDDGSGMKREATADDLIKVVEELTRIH
T3 sequence (P62942 whole entry): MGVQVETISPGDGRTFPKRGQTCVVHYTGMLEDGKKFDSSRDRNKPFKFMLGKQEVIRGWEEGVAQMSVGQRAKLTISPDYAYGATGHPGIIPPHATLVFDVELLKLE
T2 sequence (Q9Y4B6 whole entry): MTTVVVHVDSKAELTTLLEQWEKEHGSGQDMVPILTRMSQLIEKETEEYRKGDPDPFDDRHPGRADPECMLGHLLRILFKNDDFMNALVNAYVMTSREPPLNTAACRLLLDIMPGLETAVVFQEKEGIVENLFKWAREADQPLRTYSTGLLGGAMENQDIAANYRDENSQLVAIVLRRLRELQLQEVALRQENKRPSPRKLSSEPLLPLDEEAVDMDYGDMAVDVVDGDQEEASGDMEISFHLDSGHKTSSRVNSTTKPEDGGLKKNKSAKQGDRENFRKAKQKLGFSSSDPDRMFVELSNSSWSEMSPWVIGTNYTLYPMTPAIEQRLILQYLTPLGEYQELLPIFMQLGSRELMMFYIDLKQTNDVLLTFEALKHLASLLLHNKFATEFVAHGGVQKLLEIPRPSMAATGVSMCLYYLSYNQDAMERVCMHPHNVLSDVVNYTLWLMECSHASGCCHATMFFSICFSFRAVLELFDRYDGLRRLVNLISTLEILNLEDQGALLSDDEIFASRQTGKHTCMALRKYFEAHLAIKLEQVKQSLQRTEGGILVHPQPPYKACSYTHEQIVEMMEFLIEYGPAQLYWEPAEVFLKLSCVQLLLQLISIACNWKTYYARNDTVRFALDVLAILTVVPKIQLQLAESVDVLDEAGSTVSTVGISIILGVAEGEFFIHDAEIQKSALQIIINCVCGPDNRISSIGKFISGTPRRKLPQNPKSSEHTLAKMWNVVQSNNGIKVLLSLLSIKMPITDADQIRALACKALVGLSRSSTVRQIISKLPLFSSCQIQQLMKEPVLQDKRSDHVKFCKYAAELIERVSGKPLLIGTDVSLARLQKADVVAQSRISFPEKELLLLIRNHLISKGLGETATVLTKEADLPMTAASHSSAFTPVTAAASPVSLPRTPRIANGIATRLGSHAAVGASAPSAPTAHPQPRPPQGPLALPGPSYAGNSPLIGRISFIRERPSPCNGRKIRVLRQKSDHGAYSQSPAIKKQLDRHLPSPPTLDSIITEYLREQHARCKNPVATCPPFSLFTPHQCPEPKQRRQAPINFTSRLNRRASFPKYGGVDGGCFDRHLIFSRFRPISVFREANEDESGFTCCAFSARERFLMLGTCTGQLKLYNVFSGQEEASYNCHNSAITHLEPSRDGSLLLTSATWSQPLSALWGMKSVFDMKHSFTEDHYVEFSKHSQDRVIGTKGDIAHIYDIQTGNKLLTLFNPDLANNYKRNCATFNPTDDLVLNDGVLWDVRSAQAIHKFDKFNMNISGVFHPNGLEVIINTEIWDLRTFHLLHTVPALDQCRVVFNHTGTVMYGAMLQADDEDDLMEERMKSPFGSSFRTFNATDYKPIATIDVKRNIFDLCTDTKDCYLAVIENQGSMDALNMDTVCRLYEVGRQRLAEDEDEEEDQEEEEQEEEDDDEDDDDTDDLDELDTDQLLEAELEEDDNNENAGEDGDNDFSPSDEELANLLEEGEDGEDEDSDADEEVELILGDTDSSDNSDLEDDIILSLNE

For the compound `C=CC(=O)C1C[C@H](c2ccc(C(=O)NCCOCCOCCNC(=O)COc3cccc([C@@H](CCc4ccc(OC)c(OC)c4)OC(=O)[C@@H]4CCCCN4C(=O)C(=O)C(C)(C)CC)c3)cc2)[C@@H]1C(=O)Nc1cccc2cccnc12` (stereo partly drawn) [YT41R], in assay [1], the “inhibition of MY-11B probe reactivity with recombinant DCAF1” value was “concentration-dependent inhibition”, the “plateau of blockade of MY-11B labeling” value was approximately 75% and the “gel-shift of recombinant DCAF1 by Coomassie blue staining” value was “apparent gel-shift”.
As for `C=CC(=O)N1C[C@H](c2ccc(C(=O)NCCOCCOCCOCCNC(=O)COc3cccc([C@@H](CCc4ccc(OC)c(OC)c4)OC(=O)[C@@H]4CCCCN4C(=O)C(=O)C(C)(C)CC)c3)cc2)[C@@H]1C(=O)Nc1cccc2cccnc12` [YT47R], in assay [1], the “inhibition of MY-11B probe reactivity with recombinant DCAF1” value is recorded as “concentration-dependent inhibition”, the “plateau of blockade of MY-11B labeling” value is given as approximately 75% and the “gel-shift of recombinant DCAF1 by Coomassie blue staining” value is listed as “apparent gel-shift”. In assay [2], the “engagement of C1113 of recombinantly expressed DCAF1” value was approximately 20%. Also, at HA-FKBP12 (DCAF1-WT-expressing cells, 5 μM, 2 h, MG132), the “polyubiquitination of immunoprecipitated HA-FKBP12” value was “robust polyubiquitination”. Besides, the FKBP12 ubiquitination entry at HA-FKBP12 (HEK293T cells that did not express exogenous DCAF1, versus YT47S) is “increased FKBP12 ubiquitination”.
